The values below are quoted from earlier work in patent US5420288A, “Electroluminescent device comprising oxadiazole compounds luminescent material, oxadiazole compounds for the device, and method of producing oxadiazole compounds” (Ricoh Company, Ltd., priority 1992, dated 1995).

For the data set the following is noted: conventional materials, background.

`CC(C)(C)c1ccc(-c2nnc(-c3ccc(-c4ccccc4)cc3)o2)cc1` [2-(4-tert-butylphenyl)-5-(p-biphenyl)-1,3,4-oxadiazole]: the “film-forming properties / crystallization / stability” value is “easily crystallized and lacks in the stability”.
